{"source": "patent US20220339178A1", "about": "“COMPOSITIONS AND METHODS FOR COGNITIVE PROTECTION OF POLLINATORS AGAINST PESTICIDES” (priority 2019, published 2022)", "tested_on": "bumblebee Bombus impatiens", "assay": "Olfactory conditioning of PER in bumblebees: rutin vs imidacloprid", "format": "in vivo", "protocol": "One colony of the bumblebee Bombus impatiens (Koppert Inc) was kept in laboratory conditions. Bees received pollen inside the nests and foraged to a 1M sugar-water feeder outside of the nest. Bees were collected while on the feeder and iced anesthetized to then be yolked restrained in plastic pipettes. Bees were maintained in the pipettes for the entire duration of the experiment (five days).\nControl: 1M sugar water (20 μL) fed twice a day for three consecutive days;\nRutin: 1 μM Rutin (Sigma-Aldrich R5143) diluted in 1M sugar water (20 μL) fed twice a day for three days before training on the fourth day;\nImid: fed with 1M sugar water (20 μL) twice a day for three days and fed with 20 μL of 5 nM Imidacloprid (Prime Source LLC, IN, USA) in 1M sugar water 2 hours before training on the fourth day; and\nRutin+Imid: Bees fed with 1 μM Rutin diluted in 1M sugar water (20 μL) for three days before training and receiving 20 μL of 5 nM Imidacloprid in 1M sugar water 2 hours before training on the fourth day.\nAll bees were trained using olfactory conditioning of the proboscis extension response (PER). Briefly, bees were exposed to a presentation of 1-nonanol (Sigma-Aldrich) for 10 s. After 7 s of the onset of the odor presentation, the antenna was stimulated with 1.5 M sugar-water to elicit the PER. Following the PER, the bee was allowed to drink sugar-water for 3 s. Each paired presentation was considered a training trial and each individual received eleven training trials with an average intertrial interval of 10 minutes. After training, all bees were fed 20 μL of 1M sugar water and maintained in plastic boxes for 24 h until the retention test. […] Twenty-four hours after the last training trial the bees were presented with the conditioned odor for 10 s.\nPerformance for each individual was quantified as the number of conditioned PER responses across the trials. Thus, for each bee a score between zero and ten (0-10) was recorded.\nMultiple comparisons were then run using Wilcoxon-tests between groups using single or two-tailed t-tests depending upon predictions (bees on all treatments were predicted to perform better than bees in the Imidacloprid group). Error due to multiple comparisons was controlled using the False Discovery Rate method (FDR-two stage sharpened method). In all cases corrected p-values are presented.\nAcquisition learning (i.e. learning curves) was compared between bees fed with imidacloprid vs. protected bees using Repeated measures.\nRetention was quantified as a nominal variable (yes/no). Data were compared across treatments using a Chi-square test, followed by multiple comparisons between pairs of treatments. Error due to multiple comparisons was controlled using the FDR as indicated above. In all cases corrected p-values are presented.\nLatency was quantified as a continuous variable between 0.5 s and 10 s. Data were compared across treatments using an ANOVA following a Log transformation to normalize the distribution (Shapiro-Wilk W Test after log transformation: W=0.99, p=0.55), followed by multiple comparisons between groups using two-tailed t-test. Error due to multiple comparisons was controlled using the FDR method as indicated above. In all cases corrected p-values are presented.", "data": [{"smiles": "O=[N+]([O-])NC1=NCCN1Cc1ccc(Cl)nc1", "note": "[Imidacloprid]", "values": [{"measurement": "learning across trials relative to Rutin+Imidacloprid bees", "setting": "acquisition curves, repeated measures MANOVA", "value": "significantly lower"}, {"measurement": "latency of response relative to Control bees", "setting": "bumblebees", "value": "significantly longer"}, {"measurement": "latency of response relative to bees fed with Rutin", "setting": "bumblebees", "value": "significantly longer"}, {"measurement": "latency of response relative to bees prophylactically fed with Rutin", "setting": "bumblebees", "value": "not different"}, {"measurement": "memory retention after 24 h relative to Control group", "setting": "bumblebees", "value": "significantly lower"}, {"measurement": "memory retention after 24 h relative to Rutin group", "setting": "bumblebees", "value": "significantly lower"}, {"measurement": "memory retention after 24 h relative to Rutin+Imidacloprid group", "setting": "bumblebees", "value": "significantly lower"}, {"measurement": "performance score relative to Control bees", "setting": "bumblebees, score 0-10, rutin 1 μM twice a day for three days, imidacloprid 5 nM 20 μL 2 hours before training", "value": "significantly lower"}]}]}
